Assay results reported in patent US20230091336A1, “CANNABINOID COMPOSITIONS” (priority 2020, published 2023).

Molecular target: TRPM7 (Homo sapiens, UniProt Q96QT4)
Test: Whole-cell patch clamp of TRPM7 over-expressed in HEK293 cells
Format: cell-based
Set-up: expressed in transfected cells; host or cells: HEK293
Conditions: HEK293 over-expressing TRPM7
Method: Activation of TRPM7 over-expressed in HEK293 cells by perfusing the cells with intracellular solution containing 0 ATP and 0 Mg^2+, resulting in fast and maximal activation of TRPM7 outward currents at +40 mV is shown in FIG. 14.
Data from dose-response curves for the inhibition of TRPM7 currents (dark gray symbols) obtained in experiments shown in FIG. 14 and SOCE-mediated increases in intracellular Ca^2+ (light gray symbols) are shown in FIG. 15.

TRPM7, sequence (Q96QT4 whole entry, species assumed): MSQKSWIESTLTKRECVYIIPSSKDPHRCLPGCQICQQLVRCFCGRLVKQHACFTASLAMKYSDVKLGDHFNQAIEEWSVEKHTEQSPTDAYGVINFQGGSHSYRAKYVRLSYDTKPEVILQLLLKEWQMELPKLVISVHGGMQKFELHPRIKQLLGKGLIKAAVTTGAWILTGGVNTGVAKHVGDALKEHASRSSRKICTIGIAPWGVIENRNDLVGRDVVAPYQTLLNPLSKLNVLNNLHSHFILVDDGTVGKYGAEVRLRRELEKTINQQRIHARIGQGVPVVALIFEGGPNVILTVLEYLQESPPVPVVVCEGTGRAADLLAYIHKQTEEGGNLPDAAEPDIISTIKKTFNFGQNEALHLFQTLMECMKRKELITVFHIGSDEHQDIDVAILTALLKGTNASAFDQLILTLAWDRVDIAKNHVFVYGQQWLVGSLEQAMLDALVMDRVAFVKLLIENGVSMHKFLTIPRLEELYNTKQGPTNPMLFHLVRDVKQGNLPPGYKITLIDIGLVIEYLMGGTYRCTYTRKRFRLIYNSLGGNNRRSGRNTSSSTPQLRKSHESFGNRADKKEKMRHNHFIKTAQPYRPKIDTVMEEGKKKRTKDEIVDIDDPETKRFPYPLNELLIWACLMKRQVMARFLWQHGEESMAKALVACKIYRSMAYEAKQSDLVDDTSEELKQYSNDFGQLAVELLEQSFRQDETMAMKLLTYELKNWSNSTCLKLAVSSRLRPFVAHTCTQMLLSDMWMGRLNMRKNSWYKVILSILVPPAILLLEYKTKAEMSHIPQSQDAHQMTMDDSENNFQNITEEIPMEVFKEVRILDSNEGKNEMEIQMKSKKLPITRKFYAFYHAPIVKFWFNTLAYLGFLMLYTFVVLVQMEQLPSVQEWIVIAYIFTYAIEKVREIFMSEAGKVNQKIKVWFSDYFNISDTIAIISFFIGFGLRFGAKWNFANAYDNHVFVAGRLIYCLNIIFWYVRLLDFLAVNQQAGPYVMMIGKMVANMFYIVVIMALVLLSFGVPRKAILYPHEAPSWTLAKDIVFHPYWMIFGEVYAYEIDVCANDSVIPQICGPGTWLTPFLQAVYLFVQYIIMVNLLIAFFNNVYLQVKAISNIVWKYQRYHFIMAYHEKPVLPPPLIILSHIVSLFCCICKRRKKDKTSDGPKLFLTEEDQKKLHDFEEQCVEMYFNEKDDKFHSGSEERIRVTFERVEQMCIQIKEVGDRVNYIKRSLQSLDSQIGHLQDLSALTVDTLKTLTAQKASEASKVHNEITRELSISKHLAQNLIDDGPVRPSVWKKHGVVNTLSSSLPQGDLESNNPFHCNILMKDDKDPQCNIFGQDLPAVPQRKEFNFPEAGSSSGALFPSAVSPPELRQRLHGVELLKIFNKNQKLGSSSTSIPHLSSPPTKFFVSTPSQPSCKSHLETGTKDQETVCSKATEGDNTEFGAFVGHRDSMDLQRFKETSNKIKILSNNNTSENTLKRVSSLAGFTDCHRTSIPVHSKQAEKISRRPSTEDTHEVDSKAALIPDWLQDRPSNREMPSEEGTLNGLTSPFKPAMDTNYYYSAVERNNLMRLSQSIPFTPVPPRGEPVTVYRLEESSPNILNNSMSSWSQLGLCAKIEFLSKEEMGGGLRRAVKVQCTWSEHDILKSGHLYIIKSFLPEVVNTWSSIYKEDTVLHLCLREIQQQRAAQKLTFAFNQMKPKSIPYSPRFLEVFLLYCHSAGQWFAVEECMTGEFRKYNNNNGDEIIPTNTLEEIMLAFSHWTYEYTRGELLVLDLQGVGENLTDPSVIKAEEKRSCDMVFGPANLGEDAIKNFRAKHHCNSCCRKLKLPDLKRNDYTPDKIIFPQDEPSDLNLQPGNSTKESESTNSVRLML

Q: How did the “block of TRPM7 current at +40 mV” value (1, 3, 10 or 30 μM, 0 ATP, 0 Mg^2+) turn out when `CCCCCc1cc(O)c(C/C=C(\C)CCC=C(C)C)c(O)c1C(=O)O` [CBGA, (E)-3-(3,7-dimethylocta-2,6-dien-1-yl)-2,4-dihydroxy-6-pentylbenzoic acid] was run?
A: dose-dependent block

Q: And the IC50 (FIG. 15, read-out: IC50 inhibition of TRPM7 currents)?
A: ~3 µM
